Source: US20130225830A1, “POLYMORPHS OF FEBUXOSTAT” (MAPI PHARMA LIMITED, priority 2010, published 2013)
Values joined by “and” are separate entries in the source; they are usually repeats but may differ in a detail not shown here. Equal values may be shown once.

Assay: Solid stability measurements (appearance, assay and total related substances by HPLC)
Type: physicochemical
Conditions: for change of assay and TRS (in words): 60° C./75% RH at end of the first and second weeks; for Remaining (%): one value for both samples, vs −20° C. control; for Appearance / TRS (%): samples 1 and 2
Method: The detailed chromatographic conditions are listed hereinbelow. The typical retention time of febuxostat main peak is 8.2 min. [table] Testing conditions: 40° C., 60° C., 40° C./RH 75%, 60° C./RH 75%, light Testing procedure: About 3 mg of a febuxostat form were weighed in a glass vial and stored under the different conditions for 1 week and 2 weeks, separately. The same febuxostat form was stored at −20° C. as control. The test was conducted in duplication. The physical appearance, assay and total related substances of each of the febuxostat forms were measured by HPLC at the end of the first and second weeks.

Row | Compound | change of assay and TRS (in words) (40° C., 60° C., 40° C./75% RH) | Remaining (%) (40° C., 7 d) | Appearance (40° C., 7 d) | TRS (%) (40° C., 7 d) | Remaining (%) (40° C., 14 d) | Appearance (40° C., 14 d) | TRS (%) (40° C., 14 d) | Remaining (%) (40° C./75% RH, 7 d) | Appearance (40° C./75% RH, 7 d) | TRS (%) (40° C./75% RH, 7 d) | Remaining (%) (40° C./75% RH, 14 d) | Appearance (40° C./75% RH, 14 d) | TRS (%) (40° C./75% RH, 14 d) | Remaining (%) (60° C., 7 d) | Appearance (60° C., 7 d) | TRS (%) (60° C., 7 d) | Remaining (%) (60° C., 14 d) | Appearance (60° C., 14 d) | TRS (%) (60° C., 14 d) | Remaining (%) (60° C./75% RH, 7 d) | also measured
1 | Cc1nc(-c2ccc(OCC(C)C)c(C#N)c2)sc1C(=O)O [Form V, 2-(3-cyano-4-isobutoxyphenyl)-4-methyl-5-thiazolecarboxylic acid] | no significant change | 100.62 | No change | 0.45% | 100.01 | No change | 0.46% and 0.47% | 99.40 | No change | 0.47% and 0.48% | 99.03 | No change | 0.50% and 0.52% | 100.65 | No change | 0.53% and 0.51% | 100.06 | No change | 0.54% and 0.53% | 98.20 | Appearance (60° C./75% RH, 7 d): No change; TRS (%) (60° C./75% RH, 7 d): 0.51% and 0.52%; Remaining (%) (60° C./75% RH, 14 d): 98.87%; Appearance (60° C./75% RH, 14 d): No change; TRS (%) (60° C./75% RH, 14 d): 0.52% and 0.53%; Remaining (%) (Light, 7 d): 97.74%; Appearance (Light, 7 d): Light yellow; TRS (%) (Light, 7 d): 1.02% and 1.18%; Remaining (%) (Light, 14 d): 94.06%; Appearance (Light, 14 d): Light yellow; TRS (%) (Light, 14 d): 5.99% and 5.08%; Appearance (−20° C. (control), 7 d): No change; TRS (%) (−20° C. (control), 7 d): 0.40% and 0.39%; Appearance (−20° C. (control), 14 d): No change; TRS (%) (−20° C. (control), 14 d): 0.42% and 0.41%
2 | Cc1nc(-c2ccc(OCC(C)C)c(C#N)c2)sc1C(=O)O [Form IX, 2-(3-cyano-4-isobutoxyphenyl)-4-methyl-5-thiazolecarboxylic acid] | no significant change | 99.70 | No change | 1.28% and 1.30% | 100.02 | No change | 1.29% and 1.32% | 100.47 | No change | 1.34% and 1.31% | 99.47 | No change | 1.35% and 1.33% | 100.80 | No change | 1.37% and 1.35% | 100.41 | No change | 1.38% and 1.35% | 100.89 | Appearance (60° C./75% RH, 7 d): No change; TRS (%) (60° C./75% RH, 7 d): 1.33%; Remaining (%) (60° C./75% RH, 14 d): 100.07%; Appearance (60° C./75% RH, 14 d): No change; TRS (%) (60° C./75% RH, 14 d): 1.35% and 1.33%; Remaining (%) (Light, 7 d): 97.50%; Appearance (Light, 7 d): Light yellow; TRS (%) (Light, 7 d): 3.07% and 3.05%; Remaining (%) (Light, 14 d): 92.81%; Appearance (Light, 14 d): Light yellow; TRS (%) (Light, 14 d): 6.30% and 6.54%; Appearance (−20° C. (control), 7 d): No change; TRS (%) (−20° C. (control), 7 d): 1.23% and 1.22%; Appearance (−20° C. (control), 14 d): No change; TRS (%) (−20° C. (control), 14 d): 1.24% and 1.23%
3 | Cc1nc(-c2ccc(OCC(C)C)c(C#N)c2)sc1C(=O)O [Form XI, 2-(3-cyano-4-isobutoxyphenyl)-4-methyl-5-thiazolecarboxylic acid] | no significant change | 99.02 | No change | 1.25% and 1.24% | 100.12 | No change | 1.26% and 1.27% | 99.02 | No change | 1.28% | 100.75 | No change | 1.30% and 1.29% | 98.56 | No change | 1.31% and 1.30% | 99.72 | No change | 1.33% | 98.44 | Appearance (60° C./75% RH, 7 d): No change; TRS (%) (60° C./75% RH, 7 d): 1.33% and 1.31%; Remaining (%) (60° C./75% RH, 14 d): 99.82%; Appearance (60° C./75% RH, 14 d): No change; TRS (%) (60° C./75% RH, 14 d): 1.35% and 1.36%; Remaining (%) (Light, 7 d): 96.26%; Appearance (Light, 7 d): Light yellow; TRS (%) (Light, 7 d): 1.86% and 2.09%; Remaining (%) (Light, 14 d): 95.06%; Appearance (Light, 14 d): Light yellow; TRS (%) (Light, 14 d): 4.88% and 4.32%; Appearance (−20° C. (control), 7 d): No change; TRS (%) (−20° C. (control), 7 d): 1.22%; Appearance (−20° C. (control), 14 d): No change; TRS (%) (−20° C. (control), 14 d): 1.23%
